Like-named read-outs stand apart in the source and are kept apart here. Bridge positions count the residues as written; N and C are the ends. Square brackets hold non-standard residues; d marks the D form. Peptide text beside a SMILES is read from it. Pro(4R-NH2) = N[C@H]1CN[C@H](C(=O)O)C1; Pen = CC(C)(S)[C@H](N)C(=O)O; dDab = NCC[C@@H](N)C(=O)O; Nle = CCCC[C@H](N)C(=O)O; Dab = NCC[C@H](N)C(=O)O
Legend:
[1] = tested on: human red blood cells (hRBC); experiment: Hemolysis of human red blood cells; assay type: cell-based; conditions: red cells of human, 1 h
How it was run: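 Percent hemolysis is OD540 of peptide-treated supernatant relative to water-lysed cells. Each peptide was tested at 200 μg/mL against 20% (v/v) washed human erythrocytes. Incubation was 1 h at 37 °C, 300 rpm.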

[2] = tested on: Klebsiella pneumoniae SSI3010; conditions: SSI3010
How it was run: (§1)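 First, bacterial colonies are suspended in saline and adjusted to 0.5 McFarland. Next, the suspension is diluted into cation-adjusted Mueller-Hinton II broth (approx. 5×10^5 CFU/mL). Finally, it is added to two-fold serially diluted peptide, with polysorbate 80 at 0.002% final.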

[3] = tested on: Escherichia coli MCR-1 Af 45
How it was run: as §1

[4] = tested on: Escherichia coli ATCC 25922; conditions: ATCC 25922
How it was run: as §1

[5] = Mueller-Hinton broth II, 18-20 hours at 35° C.

SMILES | Klebsiella pneumoniae SSI3010 MIC [2] | Escherichia coli ATCC 25922 MIC [4] | Escherichia coli MCR-1 Af 45 MIC ([3]; MCR-1 Af 45) | Hemolysis at 0.2 g/L [1] | Escherichia coli MCR-1 Af 45 MIC [3, 5]
CC[C@H](C)[C@H](NC(=O)[C@@H]1C[C@@H](O)CN1C(=O)[C@@H](N)C(C)C)C(=O)N[C@@H](CN)C(=O)N[C@@H](Cc1ccc(O)cc1)C(=O)N[C@@H]1C(=O)N[C@@H](CC(N)=O)C(=O)N[C@@H](CCCNC(=N)N)C(=O)N[C@@H](CCN)C(=O)N[C@@H]([C@@H](C)O)C(=O)N[C@H](CCN)C(=O)N[C@@H](CCCCN)C(=O)N[C@H](C(=O)N[C@@H](CCN)C(=O)N[C@@H](CCCNC(=N)N)C(=O)N[C@@H](Cc2ccc(O)cc2)C(=O)O)CSSC1(C)C [Example 183] (HELM PEPTIDE1{V.[Hyp].I.[NC[C@H](N[*:1])C(=O)[*:2]].Y.[Pen].N.R.[Dab].T.[NCC[C@@H](N[*:1])C(=O)[*:2]].K.C.[Dab].R.Y}$PEPTIDE1,PEPTIDE1,6:R3-13:R3$$$V2.0) | 0.5 µg/mL | 0.25 µg/mL |  | 0% | 0.125 µg/mL
CC[C@H](C)[C@H](NC(=O)[C@@H](NC(=O)[C@@H]1CCCN1C(=O)[C@@H](NC(=O)[C@@H]1CCCN1C(=O)[C@H](CCCCN)NC(=O)[C@@H](N)CCCCN)C(C)C)[C@@H](C)CC)C(=O)N[C@@H](Cc1ccc(O)cc1)C(=O)N[C@H]1CSSC[C@@H](C(=O)N[C@@H](CCN)C(=O)N[C@@H](CCCNC(=N)N)C(=O)N[C@@H](Cc2ccc(O)cc2)C(=O)O)NC(=O)[C@H](CCCCN)NC(=O)[C@@H](CCN)NC(=O)[C@H]([C@@H](C)O)NC(=O)CN(CCCCN)C(=O)[C@H](CCCNC(=N)N)NC(=O)[C@H](CC(N)=O)NC1=O [Example 105] (HELM PEPTIDE1{K.K.P.V.P.I.I.Y.C.N.R.[NCCCCN(CC(=O)[*:2])[*:1]].T.[NCC[C@@H](N[*:1])C(=O)[*:2]].K.C.[Dab].R.Y}$PEPTIDE1,PEPTIDE1,9:R3-16:R3$$$V2.0) | 0.125 µg/mL | 0.125 µg/mL | 0.0625 µg/mL | 0% | 
CC[C@H](C)[C@H](NC(=O)[C@@H]1C[C@@H](O)CN1C(=O)[C@@H](NC(=O)[C@@H]1C[C@@H](O)CN1C(=O)[C@H](CCCCN)NC(=O)[C@@H](N)CCCCN)C(C)C)C(=O)N[C@H](C(=O)N[C@@H](Cc1ccc(O)cc1)C(=O)N[C@@H]1C(=O)N[C@@H](CC(N)=O)C(=O)N[C@@H](CCCNC(=N)N)C(=O)N[C@@H](CCN)C(=O)N[C@@H]([C@@H](C)O)C(=O)N[C@H](CCN)C(=O)N[C@@H](CCCCN)C(=O)N[C@H](C(=O)N[C@@H](Cc2ccc(O)cc2)C(=O)N[C@@H](CCCNC(=N)N)C(=O)N[C@@H](Cc2ccc(O)cc2)C(=O)O)CSSC1(C)C)[C@@H](C)O [Example 128, Lys-Lys-Hyp-Val-Hyp-Ile-Thr-Tyr-Pen-Asn-Arg-Dab-Thr-^DDab-Lys-Cys-Tyr-Arg-Tyr] (HELM PEPTIDE1{K.K.[Hyp].V.[Hyp].I.T.Y.[Pen].N.R.[Dab].T.[NCC[C@@H](N[*:1])C(=O)[*:2]].K.C.Y.R.Y}$PEPTIDE1,PEPTIDE1,9:R3-16:R3$$$V2.0; N-terminus and C-terminus assumed) | 0.125 µg/mL | 0.125 µg/mL | 0.0625 µg/mL | 0% | 
CC[C@H](C)[C@H](NC(=O)[C@@H]1C[C@@H](O)CN1C(=O)[C@@H](N)C(C)C)C(=O)N[C@H](C(=O)N[C@@H](Cc1ccc(O)cc1)C(=O)N[C@@H]1C(=O)N[C@@H](CN)C(=O)N[C@@H](CCCNC(=N)N)C(=O)N[C@@H](CCN)C(=O)N[C@@H]([C@@H](C)O)C(=O)N[C@H](CCN)C(=O)N[C@@H](CCCCN)C(=O)N[C@H](C(=O)N[C@@H](CCN)C(=O)N[C@@H](CCCNC(=N)N)C(=O)N[C@@H](Cc2ccc(O)cc2)C(=O)O)CSSC1(C)C)[C@@H](C)O [Example 182] (HELM PEPTIDE1{V.[Hyp].I.T.Y.[Pen].[NC[C@H](N[*:1])C(=O)[*:2]].R.[Dab].T.[NCC[C@@H](N[*:1])C(=O)[*:2]].K.C.[Dab].R.Y}$PEPTIDE1,PEPTIDE1,6:R3-13:R3$$$V2.0) | 0.25 µg/mL | 0.0625 µg/mL |  | 0% | 0.125 µg/mL
CC[C@H](C)[C@H](NC(=O)[C@@H]1C[C@@H](O)CN1C(=O)[C@@H](N)C(C)C)C(=O)N[C@H](C(=O)N[C@@H](Cc1ccc(O)cc1)C(=O)N[C@@H]1C(=O)N[C@@H](CC(N)=O)C(=O)N[C@@H](CCCNC(=N)N)C(=O)N[C@@H](CCN)C(=O)N[C@@H]([C@@H](C)O)C(=O)N[C@H](CCN)C(=O)N[C@@H](CO)C(=O)N[C@H](C(=O)N[C@@H](CCN)C(=O)N[C@@H](CCCNC(=N)N)C(=O)N[C@@H](Cc2ccc(O)cc2)C(=O)O)CSSC1(C)C)[C@@H](C)O [Example 170] (HELM PEPTIDE1{V.[Hyp].I.T.Y.[Pen].N.R.[Dab].T.[NCC[C@@H](N[*:1])C(=O)[*:2]].S.C.[Dab].R.Y}$PEPTIDE1,PEPTIDE1,6:R3-13:R3$$$V2.0) | 0.5 µg/mL | 0.25 µg/mL |  | 0% | 0.5 µg/mL

Further lines, with some results ahead:

Klebsiella pneumoniae SSI3010 MIC [2] | Escherichia coli ATCC 25922 MIC [4] | Escherichia coli MCR-1 Af 45 MIC ([3]; MCR-1 Af 45) | SMILES | Hemolysis at 0.2 g/L [1] | Escherichia coli MCR-1 Af 45 MIC [3, 5]
0.125 µg/mL | 0.03125 µg/mL | 0.0625 µg/mL | CCCC[C@H](NC(=O)[C@H](CCCNC(=N)N)NC(=O)[C@H](CCN)NC(=O)[C@@H]1CSSC[C@H](NC(=O)[C@H](Cc2ccc(O)cc2)NC(=O)[C@@H](NC(=O)[C@@H](NC(=O)[C@@H]2CCCN2C(=O)[C@@H](NC(=O)[C@@H]2CCCN2C(=O)[C@H](CCCCN)NC(=O)[C@@H](N)CCCCN)C(C)C)[C@@H](C)CC)[C@@H](C)CC)C(=O)N[C@@H](CC(N)=O)C(=O)N[C@@H](CCCNC(=N)N)C(=O)N[C@@H](CCN)C(=O)N[C@@H]([C@@H](C)O)C(=O)N[C@H](CCN)C(=O)N[C@@H](CCCCN)C(=O)N1)C(=O)O [Example 66] (HELM PEPTIDE1{K.K.P.V.P.I.I.Y.C.N.R.[Dab].T.[NCC[C@@H](N[*:1])C(=O)[*:2]].K.C.[Dab].R.[Nle]}$PEPTIDE1,PEPTIDE1,9:R3-16:R3$$$V2.0) | 0% | 
0.125 µg/mL | 0.0625 µg/mL | 0.0625 µg/mL | CCCC[C@H](NC(=O)[C@H](CCCNC(=N)N)NC(=O)[C@H](CCN)NC(=O)[C@@H]1CSSC(C)(C)[C@H](NC(=O)[C@H](Cc2ccc(O)cc2)NC(=O)[C@@H](NC(=O)[C@@H](NC(=O)[C@@H]2C[C@@H](N)CN2C(=O)[C@@H](NC(=O)[C@@H]2C[C@@H](N)CN2)C(C)C)[C@@H](C)CC)[C@@H](C)CC)C(=O)N[C@@H](CC(N)=O)C(=O)N[C@@H](CCCNC(=N)N)C(=O)N[C@@H](CCN)C(=O)N[C@@H]([C@@H](C)O)C(=O)N[C@H](CCN)C(=O)N[C@@H](CCCCN)C(=O)N1)C(=O)O [Example 8, Pro((4R)NH2)-Val-Pro((4R)NH2)-Ile-Ile-Tyr-Pen-Asn-Arg-Dab-Thr-^DDab-Lys-Cys-Dab-Arg-Nle] (H-[Pro(4R-NH2)]V[Pro(4R-NH2)]IIY[Pen]NR[Dab]T[dDab]KC[Dab]R[Nle]-OH; disulfide 7-14) | 0% | 
0.25 µg/mL | 0.25 µg/mL | 0.25 µg/mL | CC[C@H](C)[C@H](NC(=O)[C@@H](NC(=O)[C@@H]1CCCN1C(=O)[C@@H](NC(=O)[C@@H]1CCCN1C(=O)[C@H](CCCCN)NC(=O)[C@@H](N)CCCCN)C(C)C)[C@@H](C)CC)C(=O)N[C@@H](Cc1ccc(O)cc1)C(=O)N[C@H]1CSSC[C@@H](C(=O)N[C@@H](CCN)C(=O)N[C@@H](CCCNC(=N)N)C(=O)N[C@@H](Cc2ccc(O)cc2)C(=O)O)NC(=O)[C@H](CCCCN)NC(=O)[C@@H](CCN)NC(=O)[C@H]([C@@H](C)O)NC(=O)CN(CCN)C(=O)[C@H](CCCNC(=N)N)NC(=O)[C@H](CC(N)=O)NC1=O [Example 107] (HELM PEPTIDE1{K.K.P.V.P.I.I.Y.C.N.R.[NCCN(CC(=O)[*:2])[*:1]].T.[NCC[C@@H](N[*:1])C(=O)[*:2]].K.C.[Dab].R.Y}$PEPTIDE1,PEPTIDE1,9:R3-16:R3$$$V2.0; N-terminus assumed) | 0% | 
0.25 µg/mL | 0.0625 µg/mL | 0.0625 µg/mL | CCCC[C@H](NC(=O)[C@H](CCCNC(=N)N)NC(=O)[C@H](CCN)NC(=O)[C@@H]1CSSC(C)(C)[C@H](NC(=O)[C@H](Cc2ccc(O)cc2)NC(=O)[C@@H](NC(=O)[C@@H](NC(=O)[C@@H]2C[C@@H](N)CN2C(=O)[C@@H](NC(=O)[C@@H]2CCCN2)C(C)C)[C@@H](C)CC)[C@@H](C)CC)C(=O)N[C@@H](CC(N)=O)C(=O)N[C@@H](CCCNC(=N)N)C(=O)N[C@@H](CCN)C(=O)N[C@@H]([C@@H](C)O)C(=O)N[C@H](CCN)C(=O)N[C@@H](CCCCN)C(=O)N1)C(=O)O [Example 5, Pro-Val-Pro((4R)NH2)-Ile-Ile-Tyr-Pen-Asn-Arg-Dab-Thr-^DDab-Lys-Cys-Dab-Arg-Nle] (HELM PEPTIDE1{P.V.[N[C@@H]1C[C@@H](C(=O)[*:2])N([*:1])C1].I.I.Y.[Pen].N.R.[Dab].T.[NCC[C@@H](N[*:1])C(=O)[*:2]].K.C.[Dab].R.[Nle]}$PEPTIDE1,PEPTIDE1,7:R3-14:R3$$$V2.0) | 0% | 
